Measurements as given in patent US4560685A, “2-Piperazino-pteridines useful as antithrombotics and antimetastatics” (Dr. Karl Thomae Gesellschaft mit beschrankter Haftung, priority 1984, dated 1985).

System: mice
Experiment: Approximate acute toxicity after oral administration
Format: in vivo
Settings: single dose, observation period 14 days; for animals died: 250 mg/kg
Description: The approximate acute toxicity of the test compounds was determined on groups of 5 mice after oral administration of a single dose (observation period: 14 days).

| Compound | animals died | Approximate acute toxicity [mg/kg] |
| --- | --- | --- |
| CN(C)c1nc2nc(N3CCNCC3)nc(N(C)C)c2nc1Cl [B, 6-chloro-4,7-bis(dimethylamino)-2-piperazino-pteridine] | 0 out of 5 | > 250 |
| CN(C)c1nc2nc(N3CCNCC3)nc(N(C)C)c2nc1SCc1ccccc1 [C, 6-benzylthio-4,7-bis-(dimethylamino)-2-piperazino-pteridine] | 0 out of 5 | > 250 |
| c1ccc(CSc2nc3c(N4CCOCC4)nc(N4CCNCC4)nc3nc2N2CCOCC2)cc1 [Compound A, 6-benzylthio-4,7-dimorpholino-2-piperazino-pteridine] | 0 out of 5 | > 250 |
| CSc1nc2c(N3CC[S+]([O-])CC3)nc(N3CCNCC3)nc2nc1NCc1ccccc1 [D, 7-benzylamino-6-methylthio-4-(1-oxido-thiomorpholino)-2-piperazino-pteridine] | 0 out of 5 | > 250 |
| CN(C)c1nc(N2CCNCC2)nc2nc(NCc3ccccc3)c(Cl)nc12 [E, 6-chloro-2-piperazino-4-dimethylamino-7-benzylamino-pteridine] | 0 out of 5 | > 250 |
